Here are results for five compounds from ChEMBL document CHEMBL5715260, “Selectivity Literature for EUbOPEN Chemogenomic Library” (2024).

Common to all, as to set-up: recommended concentration 1 uM
The target in test [1] is T1, Hepatocyte nuclear factor 4-alpha (Homo sapiens) (UniProt P41235).
T1 sequence (whole entry): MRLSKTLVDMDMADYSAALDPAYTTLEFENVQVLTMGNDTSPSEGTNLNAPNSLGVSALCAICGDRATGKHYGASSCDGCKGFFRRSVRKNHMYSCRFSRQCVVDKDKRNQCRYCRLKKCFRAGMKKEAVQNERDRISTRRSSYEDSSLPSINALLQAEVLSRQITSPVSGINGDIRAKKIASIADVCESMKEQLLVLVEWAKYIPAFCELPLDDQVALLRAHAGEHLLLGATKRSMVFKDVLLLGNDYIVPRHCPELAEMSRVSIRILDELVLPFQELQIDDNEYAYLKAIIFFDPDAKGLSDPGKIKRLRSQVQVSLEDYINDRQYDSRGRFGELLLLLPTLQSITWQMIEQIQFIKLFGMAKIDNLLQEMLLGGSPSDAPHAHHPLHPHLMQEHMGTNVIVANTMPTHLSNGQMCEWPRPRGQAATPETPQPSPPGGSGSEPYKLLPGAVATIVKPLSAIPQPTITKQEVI
Kind of test: Selectivity interaction (Reporter gene assay) EUB0000567a HNF4A. For orientation: Reporter assays use an easily measured gene product as a stand-in for the process of interest.

Test [2] concerns the target T2, Nuclear receptor subfamily 2 group C member 1 (Homo sapiens) (UniProt P13056).
T2 sequence (whole entry): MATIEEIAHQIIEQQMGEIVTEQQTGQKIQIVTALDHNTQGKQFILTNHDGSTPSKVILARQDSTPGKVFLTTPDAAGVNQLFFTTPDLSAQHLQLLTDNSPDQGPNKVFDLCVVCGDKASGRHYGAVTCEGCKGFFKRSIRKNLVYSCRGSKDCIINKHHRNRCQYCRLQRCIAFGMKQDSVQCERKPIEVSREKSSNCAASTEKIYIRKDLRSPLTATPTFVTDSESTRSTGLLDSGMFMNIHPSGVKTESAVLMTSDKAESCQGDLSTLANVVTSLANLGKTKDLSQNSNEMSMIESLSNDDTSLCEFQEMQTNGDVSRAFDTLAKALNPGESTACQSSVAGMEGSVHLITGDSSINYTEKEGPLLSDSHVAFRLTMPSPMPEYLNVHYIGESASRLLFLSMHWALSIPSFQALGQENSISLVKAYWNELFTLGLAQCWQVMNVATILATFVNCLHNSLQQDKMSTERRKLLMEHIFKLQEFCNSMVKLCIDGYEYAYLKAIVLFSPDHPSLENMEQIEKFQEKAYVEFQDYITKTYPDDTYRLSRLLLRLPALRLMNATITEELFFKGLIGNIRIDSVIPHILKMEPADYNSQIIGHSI
Kind of test: Selectivity interaction (Reporter gene assay) EUB0000567a NR2C1.

For test [3], the target named is Nuclear receptor subfamily 2 group E member 1 (Homo sapiens) (UniProt Q9Y466). As to the kind of experiment: Selectivity interaction (Reporter gene assay) EUB0000567a NR2E1.
Test [4] has as its target Nuclear receptor subfamily 4immunitygroup A member 1 (Homo sapiens) (UniProt P22736). Kind of test: Selectivity interaction (Reporter gene assay) EUB0000567a NR4A1.
Test [5] addresses Steroidogenic factor 1 (Homo sapiens) (UniProt Q13285). As to the kind of experiment: Selectivity interaction (Reporter gene assay) EUB0000567a NR5A1.
In test [6] the target is T3, Alpha trans-inducing protein (Human alphaherpesvirus 1) (UniProt A0A5J6DW59). As to the kind of experiment: Selectivity interaction (Reporter gene assay) EUB0000567a UL48.
The target of test [7] is T4, Retinoic acid receptor RXR-alpha (Homo sapiens) (UniProt P19793).
T4 sequence (whole entry): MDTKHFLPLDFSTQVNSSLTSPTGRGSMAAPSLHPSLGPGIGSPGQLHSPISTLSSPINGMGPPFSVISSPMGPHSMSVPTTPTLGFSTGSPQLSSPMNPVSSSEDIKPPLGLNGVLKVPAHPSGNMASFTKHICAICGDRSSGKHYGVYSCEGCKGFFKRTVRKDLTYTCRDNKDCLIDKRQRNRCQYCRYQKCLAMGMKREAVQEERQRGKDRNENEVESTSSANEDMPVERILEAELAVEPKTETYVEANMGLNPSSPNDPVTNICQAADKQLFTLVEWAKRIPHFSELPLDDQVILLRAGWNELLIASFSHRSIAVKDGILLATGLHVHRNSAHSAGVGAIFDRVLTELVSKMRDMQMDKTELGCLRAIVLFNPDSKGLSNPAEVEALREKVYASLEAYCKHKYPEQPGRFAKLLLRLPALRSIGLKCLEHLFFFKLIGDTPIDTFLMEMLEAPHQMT
As to the kind of experiment: Selectivity interaction (Reporter gene assay) EUB0000567a RXRA.

Test [8] concerns the target T1, Hepatocyte nuclear factor 4-alpha (Homo sapiens). Kind of test: Selectivity interaction (Reporter gene assay) EUB0000563a HNF4A.
Test [9] has as its target T2, Nuclear receptor subfamily 2 group C member 1 (Homo sapiens). As to the kind of experiment: Selectivity interaction (Reporter gene assay) EUB0000563a NR2C1.
For test [10], the target named is Nuclear receptor subfamily 2 group E member 1 (Homo sapiens) (UniProt Q9Y466). Kind of test: Selectivity interaction (Reporter gene assay) EUB0000563a NR2E1.
Test [11] has as its target Nuclear receptor subfamily 4immunitygroup A member 1 (Homo sapiens) (UniProt P22736). As to the kind of experiment: Selectivity interaction (Reporter gene assay) EUB0000563a NR4A1.
Test [12] concerns the target Steroidogenic factor 1 (Homo sapiens) (UniProt Q13285). As to the kind of experiment: Selectivity interaction (Reporter gene assay) EUB0000563a NR5A1.
For test [13], the target named is T3, Alpha trans-inducing protein (Human alphaherpesvirus 1). Kind of test: Selectivity interaction (Reporter gene assay) EUB0000563a UL48.
The target in test [14] is T4, Retinoic acid receptor RXR-alpha (Homo sapiens). Kind of test: Selectivity interaction (Reporter gene assay) EUB0000563a RXRA. The conditions noted are these: reference bexarotene 1 uM, Selectivity number of off-targets 0.0, Selectivity number of targets 1.0, Source Knowledge inhouse.
The target of test [15] is T2, Nuclear receptor subfamily 2 group C member 1 (Homo sapiens). As to the kind of experiment: Selectivity interaction (Reporter gene assay) EUB0000568a NR2C1. The settings on record: screened at recom. conc., Selectivity number of off-targets 2.0, Selectivity number of targets 5.0, Source Knowledge inhouse.
The target in test [16] is Nuclear receptor subfamily 2 group E member 1 (Homo sapiens) (UniProt Q9Y466). Kind of test: Selectivity interaction (Reporter gene assay) EUB0000568a NR2E1. The conditions noted are these: screened at recom. conc., Selectivity number of off-targets 2.0, Selectivity number of targets 5.0, Source Knowledge inhouse.
In test [17] the target is T1, Hepatocyte nuclear factor 4-alpha (Homo sapiens). As to the kind of experiment: Selectivity interaction (Reporter gene assay) EUB0000568a HNF4A.
The target in test [18] is Nuclear receptor subfamily 4immunitygroup A member 1 (Homo sapiens) (UniProt P22736). Kind of test: Selectivity interaction (Reporter gene assay) EUB0000568a NR4A1.
The target of test [19] is Steroidogenic factor 1 (Homo sapiens) (UniProt Q13285). As to the kind of experiment: Selectivity interaction (Reporter gene assay) EUB0000568a NR5A1.
Test [20] addresses T3, Alpha trans-inducing protein (Human alphaherpesvirus 1). Kind of test: Selectivity interaction (Reporter gene assay) EUB0000568a UL48.
Test [21] concerns the target T4, Retinoic acid receptor RXR-alpha (Homo sapiens). As to the kind of experiment: Selectivity interaction (Reporter gene assay) EUB0000568a RXRA. The settings on record: reference bexarotene 1 uM, Selectivity number of off-targets 0.0, Selectivity number of targets 1.0, Source Knowledge inhouse.
Test [22] concerns the target T1, Hepatocyte nuclear factor 4-alpha (Homo sapiens). As to the kind of experiment: Selectivity interaction (Reporter gene assay) EUB0000565a HNF4A.
Test [23] has as its target T2, Nuclear receptor subfamily 2 group C member 1 (Homo sapiens). Kind of test: Selectivity interaction (Reporter gene assay) EUB0000565a NR2C1.
Test [24] has as its target Nuclear receptor subfamily 2 group E member 1 (Homo sapiens) (UniProt Q9Y466). As to the kind of experiment: Selectivity interaction (Reporter gene assay) EUB0000565a NR2E1.
The target in test [25] is Nuclear receptor subfamily 4immunitygroup A member 1 (Homo sapiens) (UniProt P22736). Kind of test: Selectivity interaction (Reporter gene assay) EUB0000565a NR4A1.
Test [26] deals with Steroidogenic factor 1 (Homo sapiens) (UniProt Q13285). Kind of test: Selectivity interaction (Reporter gene assay) EUB0000565a NR5A1.
The target of test [27] is T3, Alpha trans-inducing protein (Human alphaherpesvirus 1). Kind of test: Selectivity interaction (Reporter gene assay) EUB0000565a UL48.
The target of test [28] is T4, Retinoic acid receptor RXR-alpha (Homo sapiens). As to the kind of experiment: Selectivity interaction (Reporter gene assay) EUB0000565a RXRA. The settings on record: reference bexarotene 1 uM, Selectivity number of off-targets 0.0, Selectivity number of targets 1.0, Source Knowledge inhouse.
The target in test [29] is Retinoic acid receptor beta (Homo sapiens) (UniProt P10826). Kind of test: Selectivity interaction (Reporter gene assay) EUB0000565a RARB. The settings on record: screened at recom. conc., Selectivity number of off-targets 0.0, Selectivity number of targets 19.0, Source Knowledge inhouse.
For test [30], the target named is T1, Hepatocyte nuclear factor 4-alpha (Homo sapiens). As to the kind of experiment: Selectivity interaction (Reporter gene assay) EUB0000555a HNF4A.
In test [31] the target is T2, Nuclear receptor subfamily 2 group C member 1 (Homo sapiens). As to the kind of experiment: Selectivity interaction (Reporter gene assay) EUB0000555a NR2C1.
The target in test [32] is Nuclear receptor subfamily 2 group E member 1 (Homo sapiens) (UniProt Q9Y466). As to the kind of experiment: Selectivity interaction (Reporter gene assay) EUB0000555a NR2E1.
Test [33] has as its target Nuclear receptor subfamily 4immunitygroup A member 1 (Homo sapiens) (UniProt P22736). As to the kind of experiment: Selectivity interaction (Reporter gene assay) EUB0000555a NR4A1.
The target in test [34] is Steroidogenic factor 1 (Homo sapiens) (UniProt Q13285). As to the kind of experiment: Selectivity interaction (Reporter gene assay) EUB0000555a NR5A1.
In test [35] the target is T3, Alpha trans-inducing protein (Human alphaherpesvirus 1). Kind of test: Selectivity interaction (Reporter gene assay) EUB0000555a UL48.
Test [36] addresses T4, Retinoic acid receptor RXR-alpha (Homo sapiens). Kind of test: Selectivity interaction (Reporter gene assay) EUB0000555a RXRA.

Chain of Steroidogenic factor 1 (Homo sapiens) (Q13285 whole entry): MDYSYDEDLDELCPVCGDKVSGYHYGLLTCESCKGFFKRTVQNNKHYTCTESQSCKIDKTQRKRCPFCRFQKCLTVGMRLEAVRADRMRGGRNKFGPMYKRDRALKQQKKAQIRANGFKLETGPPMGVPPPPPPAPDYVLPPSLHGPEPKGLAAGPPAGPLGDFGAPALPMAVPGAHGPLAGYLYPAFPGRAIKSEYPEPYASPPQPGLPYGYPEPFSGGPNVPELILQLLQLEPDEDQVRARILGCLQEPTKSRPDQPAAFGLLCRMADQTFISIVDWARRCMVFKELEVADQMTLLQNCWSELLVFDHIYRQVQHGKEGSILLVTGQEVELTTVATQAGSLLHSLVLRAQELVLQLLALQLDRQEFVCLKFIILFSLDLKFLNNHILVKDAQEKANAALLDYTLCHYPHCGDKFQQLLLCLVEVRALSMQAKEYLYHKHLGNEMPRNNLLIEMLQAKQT
Chain of Nuclear receptor subfamily 4immunitygroup A member 1 (Homo sapiens) (P22736 whole entry): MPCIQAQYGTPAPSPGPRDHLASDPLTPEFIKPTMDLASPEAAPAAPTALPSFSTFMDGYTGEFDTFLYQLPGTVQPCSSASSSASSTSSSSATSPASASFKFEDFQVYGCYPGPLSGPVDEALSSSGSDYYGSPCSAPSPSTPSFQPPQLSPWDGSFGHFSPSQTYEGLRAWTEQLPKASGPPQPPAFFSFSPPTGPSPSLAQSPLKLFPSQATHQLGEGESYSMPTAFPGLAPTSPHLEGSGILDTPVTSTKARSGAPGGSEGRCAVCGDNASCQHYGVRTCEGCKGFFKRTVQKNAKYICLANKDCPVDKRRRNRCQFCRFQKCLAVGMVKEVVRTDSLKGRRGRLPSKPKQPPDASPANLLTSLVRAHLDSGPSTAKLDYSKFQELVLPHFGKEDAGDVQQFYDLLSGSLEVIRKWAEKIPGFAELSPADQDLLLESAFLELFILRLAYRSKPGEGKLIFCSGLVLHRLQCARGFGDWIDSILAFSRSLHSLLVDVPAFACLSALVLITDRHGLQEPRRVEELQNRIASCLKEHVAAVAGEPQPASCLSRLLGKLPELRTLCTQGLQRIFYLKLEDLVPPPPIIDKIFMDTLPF
T3 sequence (A0A5J6DW59 as listed by the source): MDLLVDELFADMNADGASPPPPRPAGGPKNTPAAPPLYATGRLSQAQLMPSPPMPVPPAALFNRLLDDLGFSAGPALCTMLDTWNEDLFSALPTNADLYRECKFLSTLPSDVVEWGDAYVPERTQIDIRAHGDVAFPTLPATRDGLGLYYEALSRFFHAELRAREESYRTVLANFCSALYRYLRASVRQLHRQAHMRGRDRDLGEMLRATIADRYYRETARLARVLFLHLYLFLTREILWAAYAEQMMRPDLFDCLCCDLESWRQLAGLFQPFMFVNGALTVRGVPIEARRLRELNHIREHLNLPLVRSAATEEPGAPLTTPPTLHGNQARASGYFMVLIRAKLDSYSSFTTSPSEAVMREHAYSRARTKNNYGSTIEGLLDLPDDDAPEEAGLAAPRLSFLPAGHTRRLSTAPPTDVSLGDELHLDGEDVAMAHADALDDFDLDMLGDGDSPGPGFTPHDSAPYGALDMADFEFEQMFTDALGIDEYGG
Chain of Nuclear receptor subfamily 2 group E member 1 (Homo sapiens) (Q9Y466 whole entry): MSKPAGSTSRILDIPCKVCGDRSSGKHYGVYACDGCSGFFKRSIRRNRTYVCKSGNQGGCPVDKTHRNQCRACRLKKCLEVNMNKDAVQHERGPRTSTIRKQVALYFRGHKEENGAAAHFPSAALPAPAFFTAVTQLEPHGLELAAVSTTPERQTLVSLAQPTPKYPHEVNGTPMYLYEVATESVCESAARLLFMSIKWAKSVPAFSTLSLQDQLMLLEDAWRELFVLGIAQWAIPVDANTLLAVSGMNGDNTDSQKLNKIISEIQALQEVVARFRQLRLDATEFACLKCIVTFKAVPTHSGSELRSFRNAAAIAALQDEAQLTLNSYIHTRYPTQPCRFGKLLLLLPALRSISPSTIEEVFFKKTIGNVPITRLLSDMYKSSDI
Chain of Retinoic acid receptor beta (Homo sapiens) (P10826 whole entry): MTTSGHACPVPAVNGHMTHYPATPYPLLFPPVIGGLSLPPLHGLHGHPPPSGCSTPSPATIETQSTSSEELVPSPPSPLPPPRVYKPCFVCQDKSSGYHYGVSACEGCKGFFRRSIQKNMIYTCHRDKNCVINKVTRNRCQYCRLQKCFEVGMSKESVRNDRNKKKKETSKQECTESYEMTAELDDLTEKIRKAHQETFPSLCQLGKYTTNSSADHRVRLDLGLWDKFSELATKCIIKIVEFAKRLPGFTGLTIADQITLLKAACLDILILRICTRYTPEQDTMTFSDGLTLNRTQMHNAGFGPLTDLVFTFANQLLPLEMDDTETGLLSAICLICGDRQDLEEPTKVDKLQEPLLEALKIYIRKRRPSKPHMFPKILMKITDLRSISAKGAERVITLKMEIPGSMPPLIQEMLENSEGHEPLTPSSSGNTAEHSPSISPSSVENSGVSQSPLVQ

With `CC1(C)CCC(C)(C)c2cc(C(=O)Nc3ccc(C(=O)O)cc3)ccc21`, the Fold activation was found to be 1.07 in test [1] and 1.04 in [4]. The Remaining activity was 0.976 in test [2], 0.642 in test [3] and 0.908 in test [5]. Besides, in [6], the P-value was 0.0055. In addition, in test [7], the Relative activation worked out at 0.898%.

On to `CCOC(=O)c1ccc(C#Cc2ccc3c(c2)C(C)(C)CCS3)nc1`, for which the Remaining activity in test [8] came out at 0.921; in [9] it was 0.92; in test [10] it was 0.703; in test [11] it was 0.9; in [12], 0.803. In [13], this compound had a P-value of 0.00141. For the same compound, in test [14], the Relative activation was 0.694%.

`O=C(O)c1ccc2cc(-c3ccc(O)c(C45CC6CC(CC(C6)C4)C5)c3)ccc2c1`: the Fold activation is 1.5 in test [15], 2.03 in test [16], 1.24 in [18] and 1.34 in test [19]. Further, in test [17], the Remaining activity amounted to 0.803. The compound also gave a P-value in test [20] of 0.0191. The Relative activation in [21] turned out to be 0.61%.

As for `CC1(C)C(=O)C(C)(C)c2cc(C(=O)Nc3ccc(C(=O)O)cc3)ccc21`, the Remaining activity was 0.954 in test [22], 0.923 in test [24], 0.925 in [25] and 0.944 in [26]. For the same compound, the Fold activation in test [23] amounted to 1; in test [29], 13.5. Besides, in test [27], the P-value came out at 0.000922. The Relative activation in [28] came to 0.48%.

Regarding `N[C@@H](Cc1cc(I)c(Oc2ccc(O)c(I)c2)c(I)c1)C(=O)O`, the Remaining activity in [30] stood at 0.559; in test [31] it was 0.695; in test [33], 0.804; in test [34] it was 0.79. For the same compound, the Fold activation in test [32] came to 1.03. In test [35], this compound came in with a P-value of 8.08e-06. The Relative activation in [36] is 0.715%.
